ChEMBL document CHEMBL5150044, “Macrocyclization of Quinazoline-Based EGFR Inhibitors Leads to Exclusive Mutant Selectivity for EGFR L858R and Del19” (J Med Chem, 2022)
Activity calls are given as the source filed them. The rule behind the calls is not given here.

How the values were obtained:
[1] = target: RAC-alpha serine/threonine-protein kinase (Mus musculus) (UniProt P31750); format: cell-based; details: BaF3, dose 10-1000 nM, time 8.0 hrs
[2] = target: T1, Serine/threonine-protein kinase 17B (Homo sapiens) (UniProt O94768); assay: Binding affinity to recombinant […] (unknown origin) assessed as change in melting temperature 10 uM by differential scanning fluorimetry
T1 sequence (whole entry): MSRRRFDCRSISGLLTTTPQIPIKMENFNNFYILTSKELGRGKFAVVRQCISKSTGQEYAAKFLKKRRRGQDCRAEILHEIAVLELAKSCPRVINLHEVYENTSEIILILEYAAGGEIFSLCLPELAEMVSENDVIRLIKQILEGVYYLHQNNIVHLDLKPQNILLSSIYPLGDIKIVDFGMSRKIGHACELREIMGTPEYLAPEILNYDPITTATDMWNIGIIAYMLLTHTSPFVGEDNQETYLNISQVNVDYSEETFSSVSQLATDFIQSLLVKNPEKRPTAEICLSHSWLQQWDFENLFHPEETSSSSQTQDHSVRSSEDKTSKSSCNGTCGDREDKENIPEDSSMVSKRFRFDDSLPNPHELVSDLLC

[3] = target: T2, Dual specificity tyrosine-phosphorylation-regulated kinase 2 (Homo sapiens) (UniProt Q92630); assay: Binding affinity to recombinant DYRK2 (unknown origin) assessed as change in melting temperature 10 uM by differential scanning fluorimetry
T2 sequence (whole entry): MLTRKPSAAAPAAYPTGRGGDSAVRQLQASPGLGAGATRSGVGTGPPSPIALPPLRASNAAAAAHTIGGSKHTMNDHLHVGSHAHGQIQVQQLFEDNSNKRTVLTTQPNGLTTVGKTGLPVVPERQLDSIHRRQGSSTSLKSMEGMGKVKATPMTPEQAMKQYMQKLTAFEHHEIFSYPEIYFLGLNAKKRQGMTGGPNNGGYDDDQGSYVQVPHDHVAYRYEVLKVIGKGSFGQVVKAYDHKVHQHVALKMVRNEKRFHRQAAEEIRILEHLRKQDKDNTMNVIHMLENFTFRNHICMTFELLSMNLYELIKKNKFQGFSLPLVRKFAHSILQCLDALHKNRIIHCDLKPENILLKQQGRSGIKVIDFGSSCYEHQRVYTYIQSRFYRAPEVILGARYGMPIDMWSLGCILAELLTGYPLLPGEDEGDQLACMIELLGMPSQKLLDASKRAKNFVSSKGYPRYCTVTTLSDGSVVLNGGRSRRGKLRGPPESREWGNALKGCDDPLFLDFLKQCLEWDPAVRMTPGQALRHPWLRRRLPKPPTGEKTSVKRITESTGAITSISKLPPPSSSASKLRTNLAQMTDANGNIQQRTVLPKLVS

[4] = test system: BaF3; assay: cells; details: Mus musculus, BaF3, 72 h
[5] = test system: Epidermal growth factor receptor (Homo sapiens), P04626+P00533+Q15303+P21860 [L858R]; details: Mus musculus; BaF3; dose 10-1000 nM, time 8.0 hrs
[6] = target: Epidermal growth factor receptor (Homo sapiens, UniProt P00533, L858R)
[7] = target: RAC-alpha serine/threonine-protein kinase (Mus musculus) (UniProt P31750); assay: Inhibition of AKT phosphorylation in mouse BaF3 cells harboring L858R mutant assessed as […] phosphorylation at 10 to 1000 nM incubated for 8 hrs by Western blot analysis; format: cell-based; details: dose 10-1000 nM
[8] = target: Dual specificity tyrosine-phosphorylation-regulated kinase 1A (Homo sapiens) (UniProt Q13627); assay: Binding affinity to recombinant DYRK1 (unknown origin) assessed as change in melting temperature 10 uM by differential scanning fluorimetry
[9] = target: RAC-alpha serine/threonine-protein kinase (Mus musculus) (UniProt P31750); assay: Inhibition of AKT phosphorylation in mouse BaF3 cells harboring Del19 mutant assessed as […] phosphorylation at 10 to 1000 nM incubated for 8 hrs by Western blot analysis; format: cell-based; details: dose 10-1000 nM
[10] = test system: BaF3; assay: cells; format: functional, cell-based; details: Mus musculus, BaF3, 72 h
[11] = target: T3, Mitogen-activated protein kinase 1 and 3 (ERK2 and ERK1) (Mus musculus) (UniProt P63085+Q63844); format: cell-based; details: BaF3, dose 10-1000 nM, time 8.0 hrs
[12] = target: T3, Mitogen-activated protein kinase 1 and 3 (ERK2 and ERK1) (Mus musculus); assay: Inhibition of ERK1/2 phosphorylation in mouse BaF3 cells harboring Del19 mutant assessed as ERK1/2 phosphorylation at 10 to 1000 nM incubated for 8 hrs by Western blot analysis; format: cell-based; details: dose 10-1000 nM
[13] = test system: BaF3; assay: cells; format: functional, cell-based; details: Mus musculus, BaF3, 72 h; remark: listed apart in the source
[14] = target: T3, Mitogen-activated protein kinase 1 and 3 (ERK2 and ERK1) (Mus musculus); format: cell-based; details: BaF3, dose 10-1000 nM, time 8.0 hrs; remark: listed apart in the source
[15] = test system: BaF3; assay: cells; details: Mus musculus, BaF3, 72 h; remark: listed apart in the source
[16] = target: Epidermal growth factor receptor (Homo sapiens, UniProt P00533, EX19DEL)
[17] = test system: BaF3; assay: cells; format: functional, cell-based; details: Mus musculus, BaF3, 72 h; remark: listed apart in the source
Description: Antiproliferative activity against mouse BaF3 cells expressing Del19 assessed as cell viability measured after 72 hrs hrs by CellTiter Glo assay

RAC-alpha serine/threonine-protein kinase (Mus musculus), sequence (P31750 whole entry): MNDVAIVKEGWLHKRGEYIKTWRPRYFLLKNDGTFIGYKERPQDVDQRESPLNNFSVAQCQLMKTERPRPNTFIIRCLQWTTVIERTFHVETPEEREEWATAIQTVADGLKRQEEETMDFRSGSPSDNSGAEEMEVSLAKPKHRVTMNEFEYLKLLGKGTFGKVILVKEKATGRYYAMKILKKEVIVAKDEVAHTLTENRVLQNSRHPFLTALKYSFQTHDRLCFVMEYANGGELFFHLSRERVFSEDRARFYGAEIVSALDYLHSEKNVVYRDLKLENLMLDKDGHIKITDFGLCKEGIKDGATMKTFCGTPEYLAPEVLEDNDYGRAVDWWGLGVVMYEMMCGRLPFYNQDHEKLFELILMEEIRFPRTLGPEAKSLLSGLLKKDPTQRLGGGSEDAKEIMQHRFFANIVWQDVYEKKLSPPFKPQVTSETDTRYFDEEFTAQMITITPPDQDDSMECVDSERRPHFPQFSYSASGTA
T3 sequence (P63085 whole entry, looked up): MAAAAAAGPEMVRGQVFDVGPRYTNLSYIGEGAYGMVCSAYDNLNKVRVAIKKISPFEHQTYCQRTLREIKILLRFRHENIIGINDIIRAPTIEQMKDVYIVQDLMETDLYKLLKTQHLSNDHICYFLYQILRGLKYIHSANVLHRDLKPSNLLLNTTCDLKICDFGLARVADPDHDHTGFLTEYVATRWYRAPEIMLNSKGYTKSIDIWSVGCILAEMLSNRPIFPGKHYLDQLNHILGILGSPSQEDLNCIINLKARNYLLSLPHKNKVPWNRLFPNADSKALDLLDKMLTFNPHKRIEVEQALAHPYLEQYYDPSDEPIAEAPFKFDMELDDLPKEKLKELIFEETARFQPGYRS
T3 sequence (Q63844 whole entry, looked up): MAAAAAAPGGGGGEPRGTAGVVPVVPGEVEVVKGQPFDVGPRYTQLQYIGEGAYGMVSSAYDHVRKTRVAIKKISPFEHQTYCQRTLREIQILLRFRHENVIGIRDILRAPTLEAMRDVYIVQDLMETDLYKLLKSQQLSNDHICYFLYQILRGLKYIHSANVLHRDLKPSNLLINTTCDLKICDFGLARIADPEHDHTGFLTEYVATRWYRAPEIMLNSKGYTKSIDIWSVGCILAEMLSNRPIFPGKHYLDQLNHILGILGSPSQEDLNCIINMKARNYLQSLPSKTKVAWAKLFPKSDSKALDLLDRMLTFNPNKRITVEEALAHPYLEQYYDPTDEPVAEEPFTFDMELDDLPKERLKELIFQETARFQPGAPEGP
Epidermal growth factor receptor (Homo sapiens, UniProt P00533, L858R), sequence (P00533 25-1210 L858R limits assumed): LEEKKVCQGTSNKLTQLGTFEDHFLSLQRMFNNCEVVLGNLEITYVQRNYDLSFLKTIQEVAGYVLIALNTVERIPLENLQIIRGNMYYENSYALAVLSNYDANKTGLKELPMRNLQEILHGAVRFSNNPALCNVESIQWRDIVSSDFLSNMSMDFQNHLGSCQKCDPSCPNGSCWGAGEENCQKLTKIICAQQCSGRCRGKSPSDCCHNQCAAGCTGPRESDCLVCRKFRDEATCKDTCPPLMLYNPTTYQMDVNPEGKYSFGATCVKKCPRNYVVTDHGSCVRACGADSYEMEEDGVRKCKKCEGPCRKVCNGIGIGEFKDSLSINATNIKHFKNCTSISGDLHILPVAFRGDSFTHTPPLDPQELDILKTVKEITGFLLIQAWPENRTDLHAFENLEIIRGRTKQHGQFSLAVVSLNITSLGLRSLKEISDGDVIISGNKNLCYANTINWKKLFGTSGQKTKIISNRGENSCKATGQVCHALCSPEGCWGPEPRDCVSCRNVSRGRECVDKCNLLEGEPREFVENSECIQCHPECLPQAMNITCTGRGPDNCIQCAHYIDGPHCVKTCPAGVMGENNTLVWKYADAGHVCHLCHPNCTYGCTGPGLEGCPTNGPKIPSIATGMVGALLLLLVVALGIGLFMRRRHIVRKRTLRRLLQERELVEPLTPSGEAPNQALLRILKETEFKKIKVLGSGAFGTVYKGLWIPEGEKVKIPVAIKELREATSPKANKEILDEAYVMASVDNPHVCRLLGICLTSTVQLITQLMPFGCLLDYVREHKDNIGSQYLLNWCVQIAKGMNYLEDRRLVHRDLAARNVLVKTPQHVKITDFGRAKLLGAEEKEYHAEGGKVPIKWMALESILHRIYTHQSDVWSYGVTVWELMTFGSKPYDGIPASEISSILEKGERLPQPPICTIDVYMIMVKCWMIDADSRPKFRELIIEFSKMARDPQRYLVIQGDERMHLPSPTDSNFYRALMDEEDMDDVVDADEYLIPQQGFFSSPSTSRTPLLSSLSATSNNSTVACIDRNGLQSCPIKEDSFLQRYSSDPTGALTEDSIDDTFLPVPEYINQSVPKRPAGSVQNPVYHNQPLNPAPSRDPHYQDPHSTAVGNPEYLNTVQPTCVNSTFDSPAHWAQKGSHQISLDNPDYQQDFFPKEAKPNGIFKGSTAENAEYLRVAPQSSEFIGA
Epidermal growth factor receptor (Homo sapiens, UniProt P00533, EX19DEL), sequence (P00533 whole entry, looked up, stated change not applied): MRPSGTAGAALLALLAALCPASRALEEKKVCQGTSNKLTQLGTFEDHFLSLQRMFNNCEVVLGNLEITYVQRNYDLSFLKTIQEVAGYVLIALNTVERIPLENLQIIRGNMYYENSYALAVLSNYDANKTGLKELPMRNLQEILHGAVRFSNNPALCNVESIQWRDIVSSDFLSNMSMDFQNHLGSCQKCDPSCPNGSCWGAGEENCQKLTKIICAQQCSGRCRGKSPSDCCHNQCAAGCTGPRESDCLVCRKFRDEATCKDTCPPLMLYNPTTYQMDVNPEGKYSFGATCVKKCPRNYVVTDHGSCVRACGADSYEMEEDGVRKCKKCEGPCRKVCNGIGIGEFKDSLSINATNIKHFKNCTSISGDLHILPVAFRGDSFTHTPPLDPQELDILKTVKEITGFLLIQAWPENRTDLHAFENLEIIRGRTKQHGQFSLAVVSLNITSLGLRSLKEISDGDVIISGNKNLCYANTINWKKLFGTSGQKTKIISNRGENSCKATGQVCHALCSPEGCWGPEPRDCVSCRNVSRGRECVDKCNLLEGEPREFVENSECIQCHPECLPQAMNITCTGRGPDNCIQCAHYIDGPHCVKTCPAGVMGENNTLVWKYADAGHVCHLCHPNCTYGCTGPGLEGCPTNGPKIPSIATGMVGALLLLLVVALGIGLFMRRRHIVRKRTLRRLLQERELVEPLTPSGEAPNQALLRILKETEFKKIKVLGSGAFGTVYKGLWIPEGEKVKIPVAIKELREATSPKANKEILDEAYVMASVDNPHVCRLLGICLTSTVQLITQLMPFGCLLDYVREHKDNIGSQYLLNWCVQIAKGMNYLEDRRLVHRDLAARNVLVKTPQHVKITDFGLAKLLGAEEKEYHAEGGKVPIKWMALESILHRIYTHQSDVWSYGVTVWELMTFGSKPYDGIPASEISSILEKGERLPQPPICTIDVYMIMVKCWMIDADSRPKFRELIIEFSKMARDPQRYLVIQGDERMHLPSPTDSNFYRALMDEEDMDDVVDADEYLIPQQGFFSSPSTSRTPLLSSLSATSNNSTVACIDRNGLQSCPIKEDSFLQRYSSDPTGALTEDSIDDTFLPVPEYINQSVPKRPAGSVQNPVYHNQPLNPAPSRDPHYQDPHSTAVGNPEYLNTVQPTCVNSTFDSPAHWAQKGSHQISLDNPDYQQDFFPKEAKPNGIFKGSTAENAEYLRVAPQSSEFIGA

COc1cc2ncnc(Nc3cc(Cl)c(F)cc3O)c2cc1O
inhibition [1]: Active | ΔTm [2]: > 3 °C | ΔTm [3]: > 3 °C | IC50 [4]: 93.1 nM | inhibition [5]: Active | IC50 [6]: 18.8 nM | inhibition [7]: Active | ΔTm [8]: > 3 °C | inhibition [9]: Active | IC50 [10]: 120 nM | inhibition [11]: Active | inhibition [12]: Active | IC50 [13]: 5.18 µM | inhibition [14]: Active | IC50 [15]: 141 nM | IC50 [16]: 11.5 nM | IC50 [17]: 121 nM
